Read-outs that look alike come from different tables or passages of the source.
Experiments:
[1] = test system: KCl-induced constriction in guinea pig ilea; test: Antagonism of KCl-induced constriction in guinea pig ilea
Procedure: (h) Antagonism of KCl-induced Constriction in Guinea Pig Ilea
A 1-1.5 cm segment of guinea pig ileum removed from animals weighing 200-250 g is suspended in an organ bath containing 10 ml of Tyrodes solution with 10^-6 M atropine sulfate and 10^-6 M pyrilamine maleate. The bath is maintained at 37° C. and aerated with a mixture of 95% O2 and 5% CO2. KCl induces isometric constrictions of the ileum at concentrations between 10-30mM. The contractions consist of two phases, an initial fast contraction (the phasic portion), followed by a relaxation down to less intense but more prolonged contraction (the tonic phase). Varying concentrations of test drugs are incubated with the ileum for three minutes prior to KCl-challenge. The drug concentrations, which inhibit by 50% the phasic and tonic portion of the KCl-induced constrictions, are determined (IC50 's).

[2] = test system: PAF-induced bronchoconstriction; test: Antagonism of PAF-induced bronchoconstriction in the guinea pig; type: in vivo, guinea pig (Hartley strain); details: Cavia porcellus, po, 2 hour pretreatment; read-out: ID50 antagonism of PAF-induced bronchoconstriction
Procedure: (g) Antagonism of PAF and Histamine-induced Bronchoconstriction in Guinea Pig
Spontaneously breathing male guinea pigs (Hartley strain) weighing 300-450 grams are dosed orally with test drug or control vehicle two hours prior to challenge with agonist. The animals are anesthetized with urethane (2 gm/kg) intraperitoneally and the jugular vein and trachea are cannulated. Two hours after dosing, the animal is paralyzed with succinylcholine (1.2 mg/kg, i.v.) and ventilated (Harvard rodent respirator) at 40 breaths/minutes and 2.5 cc tidal volume. Propranolol (0.1 mg/kg, i.v.) is administered and five minutes thereafter the animal is challenged with a constrictory dose of platelet activating factor (10 μg/kg, i.v.) or histamine dihydrochloride (20 μg/kg, i.v.). The change (cm H2 O) between pre and peak ventilatory pressure readings is averaged for three control animals and five drug treated animals. The percent inhibition is calculated from the following formula: (Control-Drug Treated/Control)×100.

[3] = test system: platelet activating factor induced platelet aggregation; test: Platelet activating factor induced platelet aggregation in vitro; type: cell-based; details: racemic platelet activating factor; read-out: PAF (IC50, platelet activating factor induced platelet aggregation)
Procedure: (§1) (1) Assay for Platelet Aggregation In Vitro
(§2) The turbidometric method of G. V. R. Born, Nature 194, 927 (1962) is used. Platelet rich plasma (PRP) and platelet poor plasma (PPP) are prepared with 0.38% sodium citrate-treated blood. Speed and time of centrifugation varied with different species; human:160 g for 20 minutes, dog:160 g for 15 minutes, guinea pig and rabbit:160 g for 15 minutes, and rat:230 g for 10 minutes. Aggregation is monitored with a Payton dual channel module or Chronolog lumiaggregometer when the release of ATP is simultaneously measured. 0.45 ml of PRP is added to a cuvette and prewarmed to 37° C. The stimulant (arachidonic acid or synthetic platelet activating factor) is added in volumes of 50 μl; all other agents in 5 μl. Vehicles are added to samples not containing agents. 0 to 100% light transmission is set with PRP and PPP. % aggregation is calculated from the % increase in light transmission at 5 minutes after the addition of the aggregating agent. For inhibition of aggregation studies the inhibitor is added first and preincubated with the platelets for 1 minute with stirring, followed by the stimulant. % inhibition is calculated from the % aggregation with and without the test compound. [formula]

[4] = biological target: T1, TXA2 synthase in human platelet microsomes (Homo sapiens, UniProt P24557); test: Thromboxane synthase (TXA2 syn.) inhibitory activity; type: biochemical; details: 10 μM PGH2
T1 construct: using microsomal fractions from human platelets as enzyme source; from tissue; host or cells: human platelets, microsomal fraction
T1 sequence (P24557 1-533): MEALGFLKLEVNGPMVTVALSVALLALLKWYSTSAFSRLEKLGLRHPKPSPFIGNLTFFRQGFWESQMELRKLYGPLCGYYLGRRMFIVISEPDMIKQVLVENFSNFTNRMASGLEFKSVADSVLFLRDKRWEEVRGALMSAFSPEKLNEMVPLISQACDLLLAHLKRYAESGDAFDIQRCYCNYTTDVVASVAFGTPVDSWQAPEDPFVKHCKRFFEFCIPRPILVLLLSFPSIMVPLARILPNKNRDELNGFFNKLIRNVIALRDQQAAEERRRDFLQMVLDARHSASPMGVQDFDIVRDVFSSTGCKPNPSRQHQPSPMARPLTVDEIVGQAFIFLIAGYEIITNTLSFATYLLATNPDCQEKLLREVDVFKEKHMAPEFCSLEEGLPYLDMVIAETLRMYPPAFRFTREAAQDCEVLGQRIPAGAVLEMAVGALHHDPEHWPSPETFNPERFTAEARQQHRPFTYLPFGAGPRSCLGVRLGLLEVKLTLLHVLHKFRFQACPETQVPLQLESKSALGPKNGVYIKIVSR
Procedure: (d) Assay for Thromboxane Synthase (TXA2 Syn.) Inhibitory Activity
TXA2 syn. activity is measured by following the conversion of ^14 C-prostaglandin endoperoxide (PGH2) to ^14 C-thromboxane A2 (TXA2) using microsomal fractions from human platelets as enzyme source. In the aqueous incubation medium, the TXA2 decomposes rapidly into TXB2. The amount of TXA2 syn. is adjusted so that under the conditions of the assay approximately 80-90% of the substrate, PGH2, is converted to product in control tubes. To prepare ^14 C-PGH2, ^14 C-AA (50-60 mCi/mmole; Rose Chem.) is incubated with sheep seminal vesicular gland microsomes for 1.5 min at 37° and then the ^14 C-PGH2 is extracted with diethylether, purified on columns of Sephadex LH-20 or silicic acid, and stored in acetone at -70° C. Incubations are done as follows. Sufficient ^14 C-PGH2 to yield a final substrate concentration of 10 μM (~30,000 cpm) is added to the incubation tubes and then the acetone is removed under nitrogen. The tubes are placed in an ice bath and then 215 μl of ice cold phosphate buffered saline, 10 μl of ethanol (control) or of test drug in ethanol, and 25 μl of the microsomal suspension are added with mixing in that order as rapidly as possible. The tubes are incubated at 22° for 2 minutes, the reaction is stopped and then the radioactive products and the uncoverted PGH2 are extracted and analyzed by thin layer chromatography. […] The amount of ^14 C-PGH2 converted to products was used as a measure of TXA2 synthase activity. Inhibitors were tested initially at a final concentration of 100 μM.

[5] = test system: arachidonic acid induced platelet aggregation; test: Arachidonic acid induced platelet aggregation in vitro; type: cell-based; details: read-out: AA (IC50, arachidonic acid induced platelet aggregation)
Procedure: as §1, §2

[6] = phasic, read-out: IC50 antagonism of KCl-induced constriction (phasic)
[7] = tonic, read-out: IC50 antagonism of KCl-induced constriction (tonic)

SMILES | IC50 [1, 6] [µM] | IC50 [1, 7] [µM] | ED50 [2] [mg/kg] | IC50 [3] [µM] | IC50 [4] [µM] | IC50 [5] [µM]
CC(C)c1ccc2nc3ccc(C(=O)NCCCCn4ccnc4)cn3c(=O)c2c1 [Compound A, N-[4-(1H-imidazol-1-yl)butyl]-2-(1-methylethyl)-11-oxo-11H-pyrido[2,1-b]quinazoline-8-carboxamide] | 17 | 10 | 13 | > 10 | 0.1 to 1 | < 10
CC(C)c1ccc2nc3ccc(C(=O)NCCCCc4cccnc4)cn3c(=O)c2c1 [Compound B, 2-(1-methylethyl)-N-[4-(3-pyridyl)butyl]-11-oxo-11H-pyrido[2,1-b]quinazoline-8-carboxamide] | 13 | 8 | 100 | < 10 | 0.1 to 1 | < 10
CC(C)c1ccc2nc3ccc(C(=O)NCCCCCCc4cccnc4)cn3c(=O)c2c1 [Compound C, 2-(1-Methylethyl)-N-[6-(3-pyridyl)hexyl]-11-oxo-11H-pyrido[2,1-b]quinazoline-8-carboxamide] | 5.4 | 2.4 | 50 | < 10 | 0.1 | < 10

Reference: patent US4551460A, “Pyrido[2,1-b]quinazoline derivatives useful as agents for treatment of allergic conditions and vascular disorders involving thrombosis” (priority 1983, dated 1985)
